What was measured:
[1] = system: protease activity in skin wash samples from patients with acute AD; assay: Zymographic analysis of skin wash samples; format: biochemical, human; settings: 50 μM; gelatin zymogram gel; 6 samples acute AD
Protocol: A method has been developed to evaluate protease activity in skin washings. Skin washings from patients with acute eczema may be obtained by aspirating 0.5 ml sterile physiological saline over the skin surface using a sterile, disposable plastic Pasteur pipette The skin area (˜1 cm^2) is defined by a sterile open-ended plastic cylinder. Samples were transferred to 0.05 ml 0.55 M MOPS buffer pH 7.0, 55 mM calcium chloride and 0.2% Brij 35, mixed, centrifuged to remove debris and frozen at −70° C. pending analysis.
Zymographic analysis of the protease content of the samples may be done by mixing with 0.2 volume 0.2M Tris-HCl pH 6.8 containing 37.5% (v/v) glycerol and 2.5% sodium dodecylsulphate followed by electrophoresis through a gelatin zymogram gel (Invitrogen Corporation) according to the manufacturer's instructions. Gels were washed in 2.5% (w/v) Triton X-100 in 25 mM MOPS buffer pH 7 with or without compound 11 (50 μM) and developed overnight at 37° C. in 0.1M MOPS buffer pH 7 containing 5 mM calcium chloride with or without compound 11 (50 μM). Zones of clearing due to proteolytic activity may be identified by staining with Coomassie Brilliant Blue R followed by destaining in 40% (v/v) methanol/10% (v/v) acetic acid. […]

[2] = target: T1, recombinant human cathepsin D (Homo sapiens, UniProt P07339); assay: Selectivity profile, cathepsin D; format: biochemical; settings: read-out: inhibition at 0.1 mM, Cathepsin D
T1 construct: recombinant human cathepsin D (R&D Systems Inc); purchased R&D Systems Inc
T1 sequence (P07339 65-412): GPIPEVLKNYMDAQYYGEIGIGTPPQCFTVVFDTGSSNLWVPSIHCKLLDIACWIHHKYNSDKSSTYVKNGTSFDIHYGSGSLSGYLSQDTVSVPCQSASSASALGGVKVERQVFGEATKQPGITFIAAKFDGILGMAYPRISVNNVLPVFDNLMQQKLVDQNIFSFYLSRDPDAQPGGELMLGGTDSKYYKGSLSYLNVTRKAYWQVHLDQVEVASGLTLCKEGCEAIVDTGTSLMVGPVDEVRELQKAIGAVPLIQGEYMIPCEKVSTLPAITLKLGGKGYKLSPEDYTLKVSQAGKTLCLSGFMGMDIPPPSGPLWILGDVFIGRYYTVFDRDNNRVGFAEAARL
Protocol: Inhibitory activity was tested in reaction mixtures (0.1 ml) containing 2% (v/v) DMSO vehicle±compound plus additions as follows. V8 protease: 90 mM MOPS (sodium) buffer pH 7.0, […] calcium chloride, 0.045% Brij 35, 10 μM Mca-Leu-Glu-Val-Asp-Gly-Trp-Lys(Dnp)-amide (Bachem) and V8 (BioCentrum Ltd; 30 ng). Staphopain A and B: 90 mM MOPS (sodium) buffer pH 7.0, 1.8 mM cysteine-HCl (pH-adjusted with NaOH), 0.045% Brij 35, 0.1 mM Z-Phe-Arg-AMC hydrochloride (Bachem) and staphopain A or B (BioCentrum Ltd; 30 ng). Human kallikrein 5: 0.1M sodium phosphate buffer pH 8.0, 0.045% Brij 35, 0.1 mM Boc-Val-Pro-Arg-AMC (Sigma) and recombinant human kallikrein 5 (R&D Systems Inc; 6 ng). Human kallikrein 7: 72 mM Tris-HCl pH 8.0, 0.033% Brij 35, 1.2 mM S-2586 (Chromogenix Instrumentation Laboratory SpA) and recombinant human kallikrein 7 (R&D Systems Inc; 0.6 μg) that had been thermolysin-activated according to the manufacturer's instructions. Human angiotensin-converting enzyme (ACE): 45 mM MES (sodium) buffer pH 6.5, 0.045% Brij 35, 10 μM Mca-[…]Dnp)-OH(R&D Systems Inc) and recombinant human ACE (R&D Systems Inc; 1.3 ng). Human cathepsin D: 0.1M sodium acetate buffer pH 3.5, 0.2M sodium chloride, 0.045% Brij 35, 10 μM Mca-Pro-Leu-Gly-Leu-Dap(Dnp)-Ala-Arg-amide (Bachem) and recombinant human cathepsin D (R&D Systems Inc; 8 ng) activated according to the manufacturer's instructions. […]

[3] = Solubility in water; format: physicochemical; settings: particularly when the solid is in amorphous form

Row | Compound | inhibition of protease activity in skin wash samples, zymography (in words) [1] | inhibition at 100 µM [2] [%] | solubility in water (in words) [3]
1 | CNC(=O)[C@@H](NC(=O)[C@@H](CC(=O)NO)CC(C)C)C(C)(C)C [Compound 11, (R)—N1-((S)-3,3-dimethyl-1-(methylamino)-1-oxobutan-2-yl)-N4-hydroxy-2-isobutylsuccinamide] | significant inhibition of protease activity |  | 
2 | CNC(=O)[C@@H](NC(=O)[C@H](CC(=O)NO)CC(C)C)C(C)(C)C [Compound 12, (S)—N1-((S)-3,3-dimethyl-1-(methylamino)-1-oxobutan-2-yl)-N4-hydroxy-2-isobutylsuccinamide] |  | 1 | particularly soluble in water
